Data as given in US20130072505A1, “6,9-Disubstituted Purine Derivatives and Their Use for Treating Skin” (priority 2006, published 2013).
Marks after values point to notes of the source that are not given here.

System: photodamaged facial skin
Test: clinical study of topical treatment of photodamaged facial skin, 12 weeks
Format: in vivo, human
Details: for investigator's assessment of overall improvement in skin condition (relative to baseline): 6-point scale (1=excellent improvement to 5=no improvement; 6=worse); for investigator's assessment of overall skin condition: 10 point scale (0=None; 1-3=Mild; 4-6=Moderate; 7-9=Severe); for Mean Improvement from Baseline: TEWL / Mean Improvement from Baseline: Coarse Wrinkles / Mean Improvement from Baseline: Fine Wrinkles / Mean Improvement from Baseline: Mottled Hyperpigmentation / Mean Improvement from Baseline: Overall Skin Condition / Mean Improvement from Baseline: Roughness / Subjects Reporting Improvement from Baseline: Blotchiness / Subjects Reporting Improvement from Baseline: Color / Subjects Reporting Improvement from Baseline: Fine Wrinkles / Subjects Reporting Improvement from Baseline: Texture: 0.10% topical; for Mean Improvement from Baseline: Coarse Wrinkles / Mean Improvement from Baseline: Fine Wrinkles / Mean Improvement from Baseline: Mottled Hyperpigmentation / Mean Improvement from Baseline: Overall Skin Condition / Mean Improvement from Baseline: Roughness: expert evaluation; for Skin Moisture / TEWL: 0.10% in MillCreek Lotion twice daily
Description: A clinical study has been conducted to determine the cosmetic efficacy and subjects' tolerance of topical 6-furfurylamino-9-(2-tetrahydropyranyl)purine (0.10%) applied twice daily for 12 weeks to improve the clinical signs and symptoms of photodamaged facial skin. Forty female volunteer subjects age 40 to 65 with mild to moderate signs of photo damaged facial skin were enroled in the study. Thirty four subjects competed the study; the mean age of subjects competing the study was about 54 years. Subjects were instructed to apply the test product to the entire facial skin twice daily (i.e., early morning and approximately 1 hour before bedtime) for 12 consecutive weeks. Subjects were also instructed that, other than sunscreens or mild cleansers and use of color cosmetics, no other topical skin care products or medications were to be used on the face during the study. The test product comprised 0.1 percent 6-furfurylamino-9-(2-tetrahydropyranyl)purine in MillCreek Lotion as vehicle.
Subjects were assessed at weeks 2, 4, 8, and 12. The treated facial skin was evaluated for clinical signs of skin aging (e.g., coarse and fine wrinkles, roughness, mottled hyperpigmentation) at study entry (baseline) as well as 2, 4, 8 and 12 weeks. The subjects' self-assessment of improvement over baseline (wrinkles, texture, blotchiness, color, and overall improvement) were also obtained. In addition, transepidermal water loss (TEWL) and skin moisture measurements were taken on the cheeks of all subjects.
TEWL refers to the amount of water vapor loss through the stratum corneum. […] TEWL measurements were taken using a TEWL meter (Courage & Khazaka, Köln, Germany) having composed of a probe (containing humidity and temperature sensors) connected to a central processing unit. For each subject, the probe was placed in the center of both cheeks and measurements taken in duplicate.
An indirect measurement of the skin's moisture content was made by measuring changes in the skin's electrical properties. Impedance based capacitance measurements were taken on the skin using a NOVA DPM 9003® (NOVA Technologies, Gloucester, Mass., USA). The instrument performs measurements at varying preselected frequencies (up to 1 MHz) of the applied alternating current. A value directly related to capacitance is determined in arbitrary units; a higher value indicates a greater capacitance which indicates an increased level of moisture at the test site. Measurements in triplicate were taken in the center of both cheeks for each test subject.
At the baseline (Day 0) visit, an investigator evaluated each subject's face for the presence of fine wrinkles, coarse wrinkles, roughness, mottled hyperpigmentation, and other parameters using a five-point scale (0=None; 1=Minimal; 2=Mild; 3=Moderate; and 4=Severe). The overall severity of skin photodamage (wrinkles, roughness and mottled hyperpigmentation) was evaluated using a 10 point scale (0=None; 1-3=Mild; 4-6=Moderate; and 7-9=Severe); subjects with baseline severity scores greater than 6 were excluded from the study.
On each subsequent visit, the investigator evaluated overall improvement compared to baseline using a 6-point scale (1=excellent improvement; 2=marked improvement; 3=moderate improvement; 4=slight improvement; 5=no improvement; and 6=worse).
At each subsequent visit, the subjects were asked to complete a self-assessment questionnaire to assess the improvement from baseline for skin texture, skin color, blotchiness (i.e., brown spots), fine wrinkles; and overall improvement using a five-point scale (1=much improved; 2=somewhat improved; 3=no change; 4=somewhat worse; and 5=much worse).
This Example compares the clinical data for topically applied 6-furfurylamino-9-(2-tetrahydropyranyl)purine (0.10%) taken from Example 23 with similar clinical data generated for topically applied kinetin (0.1%) from an earlier study. […]

[1] = Eight Week Data, self assessment
[2] = Twelve Week Data, self assessment
[3] = Week 2, investigator, five-point scale 0=None to 4=Severe
[4] = Week 2, subjects' self assessment, five-point scale 1=much improved to 5=much worse
[5] = Week 4, investigator, five-point scale 0=None to 4=Severe
[6] = Week 4, subjects' self assessment, five-point scale 1=much improved to 5=much worse
[7] = Week 8, investigator, five-point scale 0=None to 4=Severe
[8] = Week 8, subjects' self assessment, five-point scale 1=much improved to 5=much worse
[9] = Week 12, investigator, five-point scale 0=None to 4=Severe
[10] = Week 12, subjects' self assessment, five-point scale 1=much improved to 5=much worse

## c1coc(CNc2ncnc3c2ncn3C2CCCCO2)c1 (centres unmarked) [6-furfurylamino-9-(2-tetrahydropyranyl)purine]
2 weeks
  overall skin condition, change relative to baseline: −1.22%
  investigator's assessment of overall improvement in skin condition (relative to baseline): 4.95
  investigator's assessment of overall skin condition: 4.05
4 weeks
  overall improvement, change relative to 2 week data: −10.61%
  overall skin condition, change relative to baseline: −15.23%
  investigator's assessment of overall improvement in skin condition (relative to baseline): 4.44
  investigator's assessment of overall skin condition: 3.56
8 weeks
  overall improvement, change relative to 2 week data: −16.67%
  overall skin condition, change relative to baseline: −24.32%
  investigator's assessment of overall improvement in skin condition (relative to baseline): 4.11
  investigator's assessment of overall skin condition: 3.20
12 weeks
  overall improvement, change relative to 2 week data: −17.16%
  overall skin condition, change relative to baseline: −27.97%
  investigator's assessment of overall improvement in skin condition (relative to baseline): 4.12
  investigator's assessment of overall skin condition: 3.03
Eight Week Data
  Mean Improvement from Baseline: TEWL: 1%
  Mean Improvement from Baseline: Coarse Wrinkles: 7%
  Mean Improvement from Baseline: Fine Wrinkles: 22%*
  Mean Improvement from Baseline: Mottled Hyperpigmentation: 31%*
  Mean Improvement from Baseline: Overall Skin Condition: 24%*
  Mean Improvement from Baseline: Roughness: 86%*
[1]
  Subjects Reporting Improvement from Baseline: Blotchiness: 60%
  Subjects Reporting Improvement from Baseline: Color: 66%
  Subjects Reporting Improvement from Baseline: Fine Wrinkles: 83%
  Subjects Reporting Improvement from Baseline: Texture: 83%
Twelve Week Data
  Mean Improvement from Baseline: TEWL: 28%
  Mean Improvement from Baseline: Coarse Wrinkles: 14%*
  Mean Improvement from Baseline: Fine Wrinkles: 28%*
  Mean Improvement from Baseline: Mottled Hyperpigmentation: 41%*
  Mean Improvement from Baseline: Overall Skin Condition: 28%*
  Mean Improvement from Baseline: Roughness: 84%*
[2]
  Subjects Reporting Improvement from Baseline: Blotchiness: 63%
  Subjects Reporting Improvement from Baseline: Color: 68%
  Subjects Reporting Improvement from Baseline: Fine Wrinkles: 88%
  Subjects Reporting Improvement from Baseline: Texture: 88%
Week 2
  Acne Change Relative to Baseline: −4.00%
  Coarse Wrinkles Change Relative to Baseline: 4.44%
  Erythema Change Relative to Baseline: −33.33%
  Mottled Hyperpigmentation Change Relative to Baseline: −1.45%
  Roughness Change Relative to Baseline: −37.31%
  Skin Irritation Change Relative to Baseline: 0
  Skin Moisture Change Relative to Baseline: 6.22%
  TEWL Change Relative to Baseline: −1.98%
  Skin Moisture: 125.37* arbitrary units
  TEWL: 12.89 g/m^2/hr
Week 2, investigator
  Fine Wrinkles Change Relative to Baseline: −1.28%
[3]
  Acne: 0.60
  Coarse Wrinkles: 2.35
  Erythema: 0.40^††
  Fine Wrinkles: 2.18
  Mottled Hyperpigmentation: 1.70
  Roughness: 1.05*
  Skin Irritation: 0
[4]
  Blotchiness/Brown Spots: 2.70
  Fine Wrinkles: 2.62
  Overall Improvement: 2.36
  Skin Color: 2.74
  Skin Texture: 2.21
Week 4
  Acne Change Relative to Baseline: −13.64%
  Coarse Wrinkles Change Relative to Baseline: −4.76%
  Erythema Change Relative to Baseline: −47.62%
  Mottled Hyperpigmentation Change Relative to Baseline: −15.63%
  Roughness Change Relative to Baseline: −63.79%
  Skin Irritation Change Relative to Baseline: 0
  Skin Moisture Change Relative to Baseline: 20.96%
  TEWL Change Relative to Baseline: −9.62%
  Skin Moisture: 141.30* arbitrary units
  TEWL: 11.70* g/m^2/hr
Week 4, investigator
  Fine Wrinkles Change Relative to Baseline: −11.25%
[5]
  Acne: 0.53
  Coarse Wrinkles: 2.22
  Erythema: 0.31*
  Fine Wrinkles: 1.97*
  Mottled Hyperpigmentation: 1.50*
  Roughness: 0.58*
  Skin Irritation: 0
Week 4, self assessment
  Blotchiness/Brown Spots Change Relative to 2 Week Data: −6.19%
  Fine Wrinkles Change Relative to 2 Week Data: −18.68%
  Skin Color Change Relative to 2 Week Data: −5.32%
  Skin Texture Change Relative to 2 Week Data: −8.97%
  overall improvement, change relative to 2 week data: −6.17%
[6]
  Blotchiness/Brown Spots: 2.58
  Fine Wrinkles: 2.11*
  Overall Improvement: 2.14
  Skin Color: 2.50*
  Skin Texture: 2.03*
Week 8
  Acne Change Relative to Baseline: −9.52%
  Coarse Wrinkles Change Relative to Baseline: −7.23%
  Erythema Change Relative to Baseline: −66.67%
  Mottled Hyperpigmentation Change Relative to Baseline: −30.65%
  Roughness Change Relative to Baseline: −85.71%
  Skin Irritation Change Relative to Baseline: 0
  Skin Moisture Change Relative to Baseline: 35.10%
  TEWL Change Relative to Baseline: 0.11%
  Skin Moisture: 158.04* arbitrary units
  TEWL: 13.08 g/m^2/hr
Week 8, investigator
  Fine Wrinkles Change Relative to Baseline: −21.79%
[7]
  Acne: 0.53
  Coarse Wrinkles: 2.20
  Erythema: 0.20*
  Fine Wrinkles: 1.74*
  Mottled Hyperpigmentation: 1.23*
  Roughness: 0.23*
  Skin Irritation: 0
Week 8, self assessment
  Blotchiness/Brown Spots Change Relative to 2 Week Data: −18.95%
  Fine Wrinkles Change Relative to 2 Week Data: −23.60%
  Skin Color Change Relative to 2 Week Data: −18.28%
  Skin Texture Change Relative to 2 Week Data: −15.58%
  overall improvement, change relative to 2 week data: −16.25%
[8]
  Blotchiness/Brown Spots: 2.26*
  Fine Wrinkles: 2.00*
  Overall Improvement: 1.97*
  Skin Color: 2.23*
  Skin Texture: 1.91*
Week 12
  Acne Change Relative to Baseline: −45.00%
  Coarse Wrinkles Change Relative to Baseline: −13.75%
  Erythema Change Relative to Baseline: −66.67%%
  Mottled Hyperpigmentation Change Relative to Baseline: −40.68%
  Roughness Change Relative to Baseline: −83.64%
  Skin Irritation Change Relative to Baseline: 0
  Skin Moisture Change Relative to Baseline: 41.21%
  TEWL Change Relative to Baseline: −27.79%
  Skin Moisture: 165.42* arbitrary units
  TEWL: 9.54* g/m^2/hr
Week 12, investigator
  Fine Wrinkles Change Relative to Baseline: −27.63%
[9]
  Acne: 0.32*
  Coarse Wrinkles: 2.03*
  Erythema: 0.21*
  Fine Wrinkles: 1.62*
  Mottled Hyperpigmentation: 1.03*
  Roughness: 0.26*
  Skin Irritation: 0
Week 12, self assessment
  Blotchiness/Brown Spots Change Relative to 2 Week Data: −23.16%
  Fine Wrinkles Change Relative to 2 Week Data: −28.09%
  Skin Color Change Relative to 2 Week Data: −22.58%
  Skin Texture Change Relative to 2 Week Data: −23.38%
  overall improvement, change relative to 2 week data: −18.75%
[10]
  Blotchiness/Brown Spots: 2.15*
  Fine Wrinkles: 1.88*
  Overall Improvement: 1.91*
  Skin Color: 2.12*
  Skin Texture: 1.74*
Over the 12 week study period
  Skin irritation or other adverse effects: not observed
